Test results reported in patent US20230017532A1 (Hoffmann-La Roche Inc., priority 2018, published 2023).
Structures can show the parent of a compound that is named as a salt.

system: Acinetobacter baumannii ATCC17961; assay: Antimicrobial susceptibility testing: 90% growth inhibitory concentration (IC90) determination, Iso-Sensitest broth, OD 600 nm; assay type: cell-based; conditions: 90% growth inhibitory concentration, Acinetobacter baumannii ATCC17961, Iso-Sensitest broth, OD 600 nm over 16 h; read-out: ATCC 17961 IC90
Outline: (§1)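 Growth of bacteria (~5×10^5 CFU/ml, Iso-Sensitest medium, 35±2 °C) was followed by OD at 600 nm at 20-min intervals over 16 h against a 10-point twofold compound series (e.g. 50–0.097 μM final). Concentration giving 90% inhibition in log phase was reported.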

`CCc1cc(Nc2nccn3c(-c4ccc(O)cc4C(F)(F)F)cnc23)ccc1C(=O)NCCOCCN` [Example 182, N-[2-(2-aminoethoxy)ethyl]-2-ethyl-4-[[3-[4-hydroxy-2-(trifluoromethyl)phenyl]imidazo [1,2-a]pyrazin-8-yl]amino] benzamide; hydrochloride] and `CCc1cc(Nc2nccn3c(-c4cccc(F)c4C(F)(F)F)cnc23)ccc1C(=O)NCCOCCN` [Example 179, N-[2-(2-aminoethoxy)ethyl]-2-ethyl-4-[[3-[3-fluoro-2-(trifluoromethyl)phenyl]imidazo [1,2-a]pyrazin-8-yl]amino] benzamide] are within 1.5-fold of each other in IC90: 220 nM for the first, 300 nM for the second.

`CCc1cc(Nc2nccn3c(-c4ccc(Oc5ccccn5)c(F)c4F)cnc23)ccc1C(=O)NCCOCC(=O)N1CCN[C@H](CO)C1` [Example 204, 4-[[3-[2,3-difluoro-4-(2-pyridyloxy)phenyl]imidazo [1,2-a]pyrazin-8-yl]amino]-2-ethyl-N-[2-[2-[(3S)-3-(hydroxymethyl)piperazin-1-yl]-2-oxo-ethoxy]ethyl]benzamide] and `CCc1cc(Nc2nccn3c(-c4ccc(OC)c(F)c4F)cnc23)ccc1C(=O)NCCOCC(=O)N1CCN[C@H](CO)C1` [Example 203, 4-[[3-(2,3-difluoro-4-methoxy-phenyl)imidazo [1,2-a]pyrazin-8-yl]amino]-2-ethyl-N-[2-[2-[(3S)-3-(hydroxymethyl)piperazin-1-yl]-2-oxo-ethoxy]ethyl]benzamide] are within 1.5-fold of each other in IC90: 530 nM for the first, 430 nM for the second.

Going from `CCc1cc(Nc2nccn3c(-c4ccc(OC)c(F)c4C(F)(F)F)cnc23)ccc1C(=O)NCCOCCN` [Example 231] to `COc1ccc(-c2cnc3c(Nc4ccc(C(=O)NCCOCCN)c(F)c4)nccn23)c(F)c1F` [Example 199, N-(2-(2-amino-ethoxy)ethyl)-4-((3-(2,3-difluoro-4-methoxyphenyl)imidazo[1,2-a]pyrazin-8-yl)amino)-2-fluorobenzamide], the IC90 rises from 60 nM to 380 nM (6.3-fold).

Going from `CCc1cc(Nc2nccn3c(-c4c(F)cccc4F)cnc23)ccc1C(=O)NCCOCCN` [Example 214, N-[2-(2-amino-ethoxy)ethyl]-4-[[3-(2,6-difluorophenyl)imidazo[1,2-a]pyrazin-8-yl]amino]-2-ethyl-benzamide] to `CCc1cc(Nc2nccn3c(-c4cc(F)ccc4F)cnc23)ccc1C(=O)NCCOCCN` [Example 210, N-[2-(2-amino-ethoxy)ethyl]-4-[[3-(2,5-difluorophenyl)imidazo[1,2-a]pyrazin-8-yl]amino]-2-ethyl-benzamide], the IC90 falls from 950 nM to 550 nM (1.7-fold).

Going from `C#CCOc1ccc(-c2cnc3c(Nc4ccc(C(=O)N[C@@H](C)CNCCN)c(CC)c4)nccn23)c(F)c1F` [Example 200] to `C#CCOc1ccc(-c2cnc3c(Nc4ccc(C(=O)N[C@@H](C)CNCCNC(C)=O)c(CC)c4)nccn23)c(F)c1F` [Example 201, N-[(1S)-2-(2-acetamidoethyl-amino)-1-methyl-ethyl]-4-[[3-(2,3-difluoro-4-prop-2-ynoxy-phenyl)imidazo[1,2-a]pyrazin-8-yl]amino]-2-ethyl-benzamide], the IC90 falls from 630 nM to 360 nM (1.8-fold).

Compared with `CCc1cc(Nc2nccn3c(-c4ccc(OC)cc4S(=O)(=O)NC)cnc23)ccc1C(=O)NCCOCCN` [Example 55, N-[2-(2-aminoethoxy)ethyl]-2-ethyl-4-[[3-[4-methoxy-2-(methylsulfamoyl)phenyl]imidazo[1,2-a]pyrazin-8-yl]amino]benzamide; formic acid], `CCc1cc(Nc2nccn3c(-c4ccc(OC)cc4C(F)F)cnc23)ccc1C(=O)NCCOCCN` [Example 229, N-[2-(2-amino-ethoxy)ethyl]-4-[[3-[2-(difluoro-methyl)-4-methoxy-phenyl]imidazo [1,2-a]pyrazin-8-yl]amino]-2-ethyl-benzamide] is 70-fold lower in IC90: 2790 nM for the first, 40 nM for the second.

Compared with `CCc1cc(Nc2nccn3c(-c4ccc(OC)c(F)c4F)cnc23)ccc1C(=O)N[C@H](C)CNCCCCNCCCN` [Example 228, (R)-N-(1-((4-((3-aminopropyl)amino)butyl)amino)propan-2-yl)-4-((3-(2,3-difluoro-4-methoxyphenyl)imidazo[1,2-a]pyrazin-8-yl)amino)-2-ethylbenzamide trihydrochloride], `C#CCNCCCCNC(=O)c1ccc(Nc2nccn3c(-c4ccc(OC)c(F)c4F)cnc23)cc1CC` [Example 227, 4-[[3-(2,3-difluoro-4-methoxy-phenyl)imidazo[1,2-a]pyrazin-8-yl]amino]-2-ethyl-N-[4-(prop-2-ynylamino)butyl]benzamide] is 17-fold lower in IC90: 510 nM for the first, 30 nM for the second.

First: CCc1cc(Nc2nccn3c(-c4cc(Cl)c(OC)cc4F)cnc23)ccc1C(=O)NCCOCCN [Example 220, N-[2-(2-amino-ethoxy)ethyl]-4-[[3-(5-chloro-2-fluoro-4-methoxy-phenyl)imidazo[1,2-a]pyrazin-8-yl]amino]-2-ethyl-benzamide]
Second: CCc1cc(Nc2nccn3c(-c4cc(C)cc(F)c4)cnc23)ccc1C(=O)NCCOCCN [Example 213, N-[2-(2-amino-ethoxy)ethyl]-2-ethyl-4-[[3-(3-fluoro-5-methyl-phenyl)imidazo [1,2-a]pyrazin-8-yl]amino] benzamide]
The IC90 of the first is 10-fold lower: 80 nM for the first, 810 nM for the second.

First: COc1ccc(-c2cnc3c(Nc4cc(C)c(C(=O)NCCOCCN=C(N(C)C)N(C)C)c(F)c4)nccn23)c(F)c1F [Example 212, N-(2-(2-((bis(dimethyl-amino)methylene)amino)ethoxy)ethyl)-4-((3-(2,3-difluoro-4-methoxyphenyl)imidazo[1,2-a]pyrazin-8-yl)amino)-2-fluoro-6-methylbenzamide formate]
Second: COc1ccc(-c2cnc3c(Nc4cc(C)c(C(=O)NCCOCCN)c(Cl)c4)nccn23)c(F)c1F [Example 62, N-(2-(2-aminoethoxy)ethyl)-2-chloro-4-((3-(2,3-difluoro-4-methoxyphenyl)imidazo[1,2-a]pyrazin-8-yl)amino)-6-methyl-benzamide]
The IC90 of the first is 4.7-fold lower: 400 nM for the first, 1870 nM for the second.

First: CCc1cc(Nc2nccn3c(-c4ccc(OC)c(F)c4F)cnc23)ccc1C(=O)NCCNCC(=O)N1CCN[C@H](CO)C1 [Example 178, 4-[[3-(2,3-difluoro-4-methoxyphenyl)imidazo[1,2-a]pyrazin-8-yl]amino]-2-ethyl-N-[2-[[2-[(3S)-3-(hydroxymethyl)piperazin-1-yl]-2-oxoethyl]amino]ethyl]benzamide]
Second: CCc1cc(Nc2nccn3c(-c4ccc(OC)c(F)c4F)cnc23)ccc1C(=O)NCCCCCN(C)C [Example 223, 4-((3-(2,3-difluoro-4-methoxyphenyl)imidazo[1,2-a]pyrazin-8-yl)amino)-N-(5-(dimethylamino)pentyl)-2-ethylbenzamide]
The IC90 of the first is 5.3-fold higher: 160 nM for the first, 30 nM for the second.

`COc1ccc(-c2cnc3c(Nc4cc(F)c(C(=O)NCCOCCN)c(Br)c4)nccn23)c(F)c1F` [Example 217, N-(2-(2-amino-ethoxy)ethyl)-2-bromo-4-((3-(2,3-difluoro-4-methoxyphenyl)imidazo[1,2-a]pyrazin-8-yl)amino)-6-fluorobenzamide dihydrochloride] was tested, and the IC90 was 100 nM.

same assay, conditions: Acinetobacter baumannii, ATCC17961, 16 h, read-out: ATCC 17961 IC90

First: CCc1cc(Nc2nccn3c(-c4ccc(OC)c(F)c4F)cnc23)ccc1C(=O)NCCOCCN(C)CC(=O)NS(C)(=O)=O [Example 66, 4-((3-(2,3-difluoro-4-methoxyphenyl)imidazo[1,2-a]pyrazin-8-yl)amino)-2-ethyl-N-(2-(2-(methyl(2-(methylsulfonamido)-2-oxoethyl)amino)ethoxy)ethyl)benzamide dihydrochloride]
Second: CCc1cc(Nc2nccn3c(-c4ccc(OC)c(F)c4F)cnc23)ccc1C(=O)NCCOCC(C)(C)N [Example 72, N-[2-(2-amino-2-methyl-propoxy)ethyl]-4-[[3-(2,3-difluoro-4-methoxy-phenyl)imidazo[1,2-a]pyrazin-8-yl]amino]-2-ethyl-benzamide; formic acid]
The IC90 of the first is 9.2-fold higher: 370 nM for the first, 40 nM for the second.

Going from `CCc1cc(Nc2nccn3c(-c4ccc(OC)cc4C(F)(F)F)cnc23)ccc1C(=O)NCCOCCN` [Example 56, N-(2-(2-aminoethoxy)ethyl)-2-ethyl-4-((3-(4-methoxy-2-(trifluoromethyl)phenyl)imidazo[1,2-a]pyrazin-8-yl)amino)benzamide hydrochloride] to `COc1ccc(-c2cnc3c(Nc4ccc(C(=O)NCCOCCN)c(C)c4F)nccn23)c(F)c1F` [Example 61, dihydrochloride], the IC90 rises from 80 nM to 140 nM (1.8-fold).

system: Acinetobacter baumannii ATCC17978; assay: as above; assay type: cell-based; conditions: 90% growth inhibitory concentration, Acinetobacter baumannii ATCC17978, Iso-Sensitest broth, OD 600 nm over 16 h; read-out: ATCC 17978 IC90
Outline: as §1

For `CCc1cc(Nc2nccn3c(-c4ccc(OCC#N)c(F)c4F)cnc23)ccc1C(=O)NCCOCCN` [Example 20, N-[2-(2-aminoethoxy)ethyl]-4-[[3-[4-(cyanomethoxy)-2,3-difluoro-phenyl]imidazo[1,2-a]pyrazin-8-yl]amino]-2-ethyl-benzamide;2,2,2-trifluoroacetic acid], the IC90 was 64 nM.

same assay, conditions: Acinetobacter baumannii, ATCC17978, 16 h, 90% growth inhibitory concentration, Acinetobacter baumannii ATCC17978, Iso-Sensitest broth, OD 600 nm over 16 h; read-out: ATCC 17978 IC90

`CCc1cc(Nc2nccn3c(-c4ccc(OC(F)F)c(F)c4F)cnc23)ccc1C(=O)NCCNCCN` [Example 170, N-[2-(2-aminoethylamino)ethyl]-4-[[3-[4-(difluoro-methoxy)-2,3-difluorophenyl]imidazo[1,2-a]pyrazin-8-yl]amino]-2-ethylbenzamide; hydrochloride] and `CNCCOCCNC(=O)c1ccc(Nc2nccn3c(-c4ccc(OC)cc4)cnc23)cc1C` [Example 39, 4-((3-(4-methoxyphenyl)imidazo[1,2-a]pyrazin-8-yl)amino)-2-methyl-N-(2-(2-(methylamino)ethoxy)ethyl)benzamide] are within 1.5-fold of each other in IC90: 280 nM for the first, 260 nM for the second.

same assay, conditions: Acinetobacter baumannii, ATCC17978, 16 h, read-out: ATCC 17978 IC90

With `CCc1cc(Nc2nccn3c(-c4ccc(OC)c(F)c4F)cnc23)ccc1C(=O)NCCOCCNCC(=O)O` [Example 70, 2-[2-[2-[[4-[[3-(2,3-difluoro-4-methoxy-phenyl)imidazo[1,2-a]pyrazin-8-yl]amino]-2-ethyl-benzoyl]amino]ethoxy]ethylamino]acetic acid; formic acid] the IC90 was 490 nM.
